Data set [1] deals with endotoxin-induced uveitis (EIU). Briefly: Clinical scoring of EIU by slit lamp examination. It counts as in vivo, Lewis rats. As to conditions: for EIU clinical inflammation score: 24 h after LPS, scale 0-4, mean±SD, PBS-treated EIU 3.6±0.7; for EIU clinical score: no suppression vs controls. An excerpt:
Endotoxin-induced uveitis (EIU) is a rodent model of human uveitis, induced by a single systemic injection of endotoxin or lipopolysaccharide (LPS) (Rosenbaum et al., (1980) NATURE 286:611-613). Injected animals develop acute bilateral anterior inflammation, characterized by a breakdown of the blood-ocular barrier and accumulation of inflammatory cells. EIU has been used to investigate the pathogenesis of uveitis and to evaluate the therapeutic effect of several drugs (Herbort et al. (1989) EXP. EYE RES. 48:693-705; Avunduk et al. (2004) EXP. EYE RES. 79:357-365; Chang et al. (2006) BR. J. OPHTHALMOL. 90:103-108; Wakefield et al. (2010) BR. J. OPHTHALMOL. 94:271-274). The effect of AICAR on ocular inflammation associated with uveitis was assessed using the EIU rat model. Male Lewis rats ranging from 6-8 weeks old (Charles River, Wilmington, Mass.) were used for these studies. To study the effects of AICAR pretreatment, AICAR and PBS (for placebo treatment) were delivered via intraperitoneal injection of AICAR (50 mg/kg or 100 mg/kg body weight; Sigma) diluted in 150 μl PBS or equal volume of PBS at 6 hours before and at the same time as LPS injection. Four experimental groups of rats were compared: (1) Normal: no treatment (2) AICAR: normal rats treated with AICAR 6 hours before examination; (3) LPS: EIU rats treated with PBS; (4) LPS+AICAR: EIU rats treated with AICAR. Two additional groups of rats were used to study the effects of AICAR (50 mg/kg) given either at the same time as LPS injection or at 6 hours after LPS injection. Clinical scoring of EIU was performed as previously described (Pouvreau et al. (1998) J. NEUROIMMUNOL. 86:171-181). Slit lamp examination was conducted 24 hours after LPS injection in a masked fashion. The severity of EIU was graded from 0 to 4 by a masked investigator, using the following scale: 0=no inflammatory reaction; 1=discrete inflammation of the iris and conjunctival vessels; 2=dilation of the iris and conjunctival vessels with moderate flare in the anterior chamber; 3=hyperemia in iris associated with Tyndall effect in the anterior chamber; and 4=same clinical signs as 3 plus the presence of fibrin or synechiae.

The test system is the same in data set [2]. Briefly: Cell count and total protein concentration in aqueous humor of EIU rats. It counts as in vivo, Lewis rats. The protocol:
Male Lewis rats ranging from 6-8 weeks old (Charles River, Wilmington, Mass.) were used for these studies. To study the effects of AICAR pretreatment, AICAR and PBS (for placebo treatment) were delivered via intraperitoneal injection of AICAR (50 mg/kg or 100 mg/kg body weight; Sigma) diluted in 150 μl PBS or equal volume of PBS at 6 hours before and at the same time as LPS injection. Four experimental groups of rats were compared: (1) Normal: no treatment (2) AICAR: normal rats treated with AICAR 6 hours before examination; (3) LPS: EIU rats treated with PBS; (4) LPS+AICAR: EIU rats treated with AICAR. Two additional groups of rats were used to study the effects of AICAR (50 mg/kg) given either at the same time as LPS injection or at 6 hours after LPS injection. Aqueous humor was collected by anterior chamber puncture with a 30-gauge needle 24 hours after LPS injection. For cell counting, 1 μl of aqueous humor was diluted with an equal amount of Trypan-blue solution, and the cells were counted with a hematocytometer under a light microscope. A separate sample of aqueous humor was centrifuged at 2500 rpm for 5 minutes at 4° C. and the total protein concentration was measured by Lowry methods using a Bio-Rad protein assay kit (Hercules, Calif.). Aqueous samples were stored on ice until used; cell counts and total protein concentrations were measured on the day of sample collection.

Data set [3] deals with CD4+CD25+Foxp3+ Treg population. Briefly: Treg population in LN cells of EAU mice (flow cytometry). As to conditions: control vs AICAR-treated mice; 21 days after immunization. Format: in vivo, C57BL/6 (WT) mice. An excerpt: The effect of AICAR on the regulatory T (Treg) cell population in the EAU mice was also directly assessed. Specifically, LN cells from five mice were harvested at 21 days after immunization and stained with a mouse regulatory T cell staining kit #2 (eBioscience) according to manufacturer's instructions. CD4^+CD25^+Foxp3^+ Treg populations were subsequently detected by flow cytometry.
For orientation: A flow cytometer gives signals particle by particle.

In data set [4] the test system is experimental autoimmune uveitis (EAU). Briefly: Clinical scoring of EAU by funduscopic examination. It counts as in vivo, C57BL/6 (WT) mice.

`NC(=O)c1ncn([C@@H]2O[C@H](CO)[C@@H](O)[C@H]2O)c1N` [AICAR, 5-aminoimidazole-4-carboxamide-1-β-d-ribofuranoside]: the “EIU clinical inflammation score” value in data set [1] (AICAR 50 mg/kg i.p. 6 h before and at same time as LPS, n=15) was 2.2±0.75; in data set [1] (AICAR 100 mg/kg i.p. 6 h before and at same time as LPS, n=12), 2.7±1.4. For the same molecule, in data set [1] (AICAR-pretreated EIU animals vs PBS-treated EIU rats), the “Fibrin formation and posterior synechiae” value is “rarely seen”. For the same molecule, the “Inflammation in normal rats that received AICAR alone” value in data set [1] (age-matched normal rats, no LPS, n=6) was “No inflammation was detected”. Besides, the EIU clinical score worked out at 3.9±0.2 in data set [1] (single dose AICAR 50 mg/kg at 6 hours after LPS injection, n=6) and 3.7±0.5 in data set [1] (single dose AICAR 50 mg/kg at the time of LPS injection, n=6). In data set [2] (AICAR 50 mg/kg pretreatment, 24 h after LPS, LPS only 18.3), the “Total protein concentration in aqueous humor” value turned out to be 7.9 mg/mL. In addition, the “Number of infiltrating cells in aqueous humor” value in data set [2] (AICAR 50 mg/kg pretreatment, 24 h after LPS, n=11, LPS only 22.0×10^5) is reported as 1.4×10^5 cells/ml. Moreover, the “Cell infiltration and protein levels in aqueous humor of AICAR-only-treated rats” value in data set [2] (normal rats, AICAR only, n=6) is listed as “did not show any significant infiltration of cells nor a significant increase in protein levels”. In data set [3], the “CD4+CD25+Foxp3+ Treg population” value is reported as “not significantly different”. For the same molecule, in data set [4] (AICAR 200 mg/kg i.p. daily day 0 to 21, day 21, scale 0-4, n=15, control 2.6±0.70), the “EAU mean clinical score” value worked out at 1.32±0.95. Besides, the “Clinical inflammation on fundus examination” value in data set [4] (AICAR 100 or 200 mg/kg daily, dose-dependent manner) is given as “suppressed”. Also, the “EAU mean clinical score, effector phase treatment” value in data set [4] (AICAR administered from day 8 to 21 after immunization, n=8, controls 2.44±0.56) is recorded as 1.50±0.86.

The values are drawn from patent publication US10842806B2, “Methods for treating ocular inflammatory disorders” (Massachusetts Eye and Ear Infirmary, priority 2011, dated 2020).
